Mortality data for 23 compounds are collected here from patent publication US9783532B2, “Molecules having certain pesticidal utilities, and intermediates, compositions, and processes related thereto” (Dow AgroSciences LLC, priority 2013, dated 2017).

Assay [1] concerns Beet Armyworm (Spodoptera exigua) ("BAW"). Put plainly: Bioassay on beet armyworm (BAW), 128-well diet tray assay. In kind it is in vivo. The note with it: 168 h, 50 μg/cm^2 on artificial diet, second instar BAW larvae, 25° C., five to seven days, average of eight wells, read-out: BAW % Control (or Mortality) rating. The method in brief:
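Percent mortality, averaged across eight wells, was read after five to seven days at 25° C. under 14:10 light-dark. Each well held one to five second-instar larvae on artificial diet that had been treated with 50 μg/cm^2 compound in 90:10 acetone-water and dried.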

The test system of assay [2] is Cabbage Looper (Trichoplusia ni) ("CL"). Put plainly: Bioassay on cabbage looper (CL), 128-well diet tray assay. The assay is classed as in vivo. To be noted: 168 h, 50 μg/cm^2 on artificial diet, second instar CL larvae, 25° C., five to seven days, average of eight wells, read-out: CL % Control (or Mortality) rating. The method in brief: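 Percent mortality, averaged across eight replicate wells, was read after five to seven days at 25 °C under a 14:10 photoperiod. Each well held one to five second-instar T. ni on diet carrying a dried 50 μg/cm^2 dose applied in acetone-water 90:10.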

With `Cc1ccc(C(C)C)c(N2CCCS/C2=N\C(=O)NCCc2ccc(-c3ncn(-c4ccc(OC(F)(F)F)cc4)n3)cc2)c1` [P59, (Z)-1-(3-(2-isopropyl-5-methylphenyl)-1,3-thiazinan-2-ylidene)-3-(4-(1-(4-(trifluoromethoxy)phenyl)-1H-1,2,4-triazol-3-yl)phenethyl)urea], the mortality at 50 µg/cm2 in assay [1] and in assay [2] was 50 to 100% each time.
Turning to `Cc1ccc(C(C)C)c(N2CC(C)CS/C2=N\C(=O)NCCc2ccc(-c3ncn(-c4ccc(OC(F)(F)F)cc4)n3)cc2)c1` (stereo not shown) [P64], the mortality at 50 µg/cm2 in assay [1] and in assay [2] was 50 to 100% each time.
As for `Cc1ccccc1N1C(=O)CS/C1=N\C(=O)NCCc1cccc(-c2ncn(-c3ccc(OC(F)(F)F)cc3)n2)c1` [P74, (Z)-1-(4-oxo-3-(o-tolyl)thiazolidin-2-ylidene)-3-(3-(1-(4-(trifluoromethoxy)phenyl)-1H-1,2,4-triazol-3-yl)phenethyl)urea], the mortality at 50 µg/cm2 in assay [1] and in assay [2] was 50 to 100% throughout.
As to `CCc1ccccc1N1C(=O)CS/C1=N\C(=O)NCCc1cccc(-c2ncn(-c3ccc(OC(F)(F)F)cc3)n2)c1` [P75, (Z)-1-(3-(2-ethylphenyl)-4-oxothiazolidin-2-ylidene)-3-(3-(1-(4-(trifluoromethoxy)phenyl)-1H-1,2,4-triazol-3-yl)phenethyl)urea], the mortality at 50 µg/cm2 in assay [1] and in assay [2] was 50 to 100% each time.
As for `CC(C)c1ccccc1N1C(=O)CS/C1=N\C(=O)NCCc1cccc(-c2ncn(-c3ccc(OC(F)(F)F)cc3)n2)c1` [P76, (Z)-1-(3-(2-isopropylphenyl)-4-oxothiazolidin-2-ylidene)-3-(3-(1-(4-(trifluoromethoxy)phenyl)-1H-1,2,4-triazol-3-yl)phenethyl)urea], the mortality at 50 µg/cm2 in assay [1] and in assay [2] was 50 to 100% throughout.
For `CCCc1ccc(C)cc1N1C(=O)CS/C1=N\C(=O)NCCc1cccc(-c2ncn(-c3ccc(OC(F)(F)F)cc3)n2)c1` [P80, (Z)-1-(3-(5-methyl-2-propylphenyl)-4-oxothiazolidin-2-ylidene)-3-(3-(1-(4-(trifluoromethoxy)phenyl)-1H-1,2,4-triazol-3-yl)phenethyl)urea], the mortality at 50 µg/cm2 in assay [1] and in assay [2] was 50 to 100% each time.
Turning to `CCc1cccc(C)c1N1C(=O)CS/C1=N\C(=O)NCCc1cccc(-c2ncn(-c3ccc(OC(F)(F)F)cc3)n2)c1` [P83, (Z)-1-(3-(2-ethyl-6-methylphenyl)-4-oxothiazolidin-2-ylidene)-3-(3-(1-(4-(trifluoromethoxy)phenyl)-1H-1,2,4-triazol-3-yl)phenethyl)urea], the mortality at 50 µg/cm2 in assay [1] and in assay [2] was 50 to 100% throughout.
For `Cc1ccc(N2C(=O)CS/C2=N\C(=O)NCCc2cccc(-c3ncn(-c4ccc(OC(F)(F)F)cc4)n3)c2)c(C(C)C)c1` [P84, (Z)-1-(3-(2-isopropyl-4-methylphenyl)-4-oxothiazolidin-2-ylidene)-3-(3-(1-(4-(trifluoromethoxy)phenyl)-1H-1,2,4-triazol-3-yl)phenethyl)urea], the mortality at 50 µg/cm2 in assay [1] and in assay [2] was 50 to 100% throughout.
On to `CC(C)c1cc(F)ccc1N1C(=O)CS/C1=N\C(=O)NCCc1cccc(-c2ncn(-c3ccc(OC(F)(F)F)cc3)n2)c1` [P85, (Z)-1-(3-(4-fluoro-2-isopropylphenyl)-4-oxothiazolidin-2-ylidene)-3-(3-(1-(4-(trifluoromethoxy)phenyl)-1H-1,2,4-triazol-3-yl)phenethyl)urea], for which the mortality at 50 µg/cm2 in assay [1] and in assay [2] was 50 to 100% throughout.
Take `COc1ccc(N2C(=O)CS/C2=N\C(=O)NCCc2cccc(-c3ncn(-c4ccc(OC(F)(F)F)cc4)n3)c2)c(C)c1` [P87, (Z)-1-(3-(4-methoxy-2-methylphenyl)-4-oxothiazolidin-2-ylidene)-3-(3-(1-(4-(trifluoromethoxy)phenyl)-1H-1,2,4-triazol-3-yl)phenethyl)urea]: the mortality at 50 µg/cm2 in assay [1] and in assay [2] was 50 to 100% each time.
Take `Cc1ccccc1N1C(=O)CS/C1=N\C(=O)NCCCc1ccc(-c2ncn(-c3ccc(OC(F)(F)F)cc3)n2)cc1` [P92, (Z)-1-(4-oxo-3-(o-tolyl)thiazolidin-2-ylidene)-3-(3-(4-(1-(4-(trifluoromethoxy)phenyl)-1H-1,2,4-triazol-3-yl)phenyl)propyl)urea]: the mortality at 50 µg/cm2 in assay [1] and in assay [2] was 50 to 100% throughout.
Consider `CCc1ccccc1N1C(=O)CS/C1=N\C(=O)NCCCc1ccc(-c2ncn(-c3ccc(OC(F)(F)F)cc3)n2)cc1` [P93, P510, (Z)-1-(3-(2-ethylphenyl)-4-oxothiazolidin-2-ylidene)-3-(3-(4-(1-(4-(trifluoromethoxy)phenyl)-1H-1,2,4-triazol-3-yl)phenyl)propyl)urea], for which the mortality at 50 µg/cm2 in assay [1] and in assay [2] was 50 to 100% throughout.
With `CC(C)c1ccccc1N1C(=O)CS/C1=N\C(=O)NCCCc1ccc(-c2ncn(-c3ccc(OC(F)(F)F)cc3)n2)cc1` [P94, P197, (Z)-1-(3-(2-isopropylphenyl)-4-oxothiazolidin-2-ylidene)-3-(3-(4-(1-(4-(trifluoromethoxy)phenyl)-1H-1,2,4-triazol-3-yl)phenyl)propyl)urea], the mortality at 50 µg/cm2 in assay [1] and in assay [2] was 50 to 100% in each case.
Regarding `CCCc1ccc(C)cc1N1C(=O)CS/C1=N\C(=O)NCCCc1ccc(-c2ncn(-c3ccc(OC(F)(F)F)cc3)n2)cc1` [P99, P830, (Z)-1-(3-(5-methyl-2-propylphenyl)-4-oxothiazolidin-2-ylidene)-3-(3-(4-(1-(4-(trifluoromethoxy)phenyl)-1H-1,2,4-triazol-3-yl)phenyl)propyl)urea], the mortality at 50 µg/cm2 in assay [1] and in assay [2] was 50 to 100% each time.
Take `Cc1ccc(N2C(=O)CS/C2=N\C(=O)NCCCc2ccc(-c3ncn(-c4ccc(OC(F)(F)F)cc4)n3)cc2)c(C(C)C)c1` [P102, (Z)-1-(3-(2-isopropyl-4-methylphenyl)-4-oxothiazolidin-2-ylidene)-3-(3-(4-(1-(4-(trifluoromethoxy)phenyl)-1H-1,2,4-triazol-3-yl)phenyl)propyl)urea]: the mortality at 50 µg/cm2 in assay [1] and in assay [2] was 50 to 100% in each case.
Take `CC(C)c1cc(F)ccc1N1C(=O)CS/C1=N\C(=O)NCCCc1ccc(-c2ncn(-c3ccc(OC(F)(F)F)cc3)n2)cc1` [P103, P1150, (Z)-1-(3-(4-fluoro-2-isopropylphenyl)-4-oxothiazolidin-2-ylidene)-3-(3-(4-(1-(4-(trifluoromethoxy)phenyl)-1H-1,2,4-triazol-3-yl)phenyl)propyl)urea]: the mortality at 50 µg/cm2 in assay [1] and in assay [2] was 50 to 100% each time.
`COc1ccc(N2C(=O)CS/C2=N\C(=O)NCCCc2ccc(-c3ncn(-c4ccc(OC(F)(F)F)cc4)n3)cc2)c(C)c1` [P105, (Z)-1-(3-(4-methoxy-2-methylphenyl)-4-oxothiazolidin-2-ylidene)-3-(3-(4-(1-(4-(trifluoromethoxy)phenyl)-1H-1,2,4-triazol-3-yl)phenyl)propyl)urea]: the mortality at 50 µg/cm2 in assay [1] and in assay [2] was 50 to 100% in each case.
On to `Cc1ccccc1N1C(=O)CS/C1=N\C(=O)NCCCc1cccc(-c2ncn(-c3ccc(OC(F)(F)F)cc3)n2)c1` [P118, (Z)-1-(4-oxo-3-(o-tolyl)thiazolidin-2-ylidene)-3-(3-(3-(1-(4-(trifluoromethoxy)phenyl)-1H-1,2,4-triazol-3-yl)phenyl)propyl)urea], for which the mortality at 50 µg/cm2 in assay [1] and in assay [2] was 50 to 100% throughout.
Consider `CCc1ccccc1N1C(=O)CS/C1=N\C(=O)NCCCc1cccc(-c2ncn(-c3ccc(OC(F)(F)F)cc3)n2)c1` [P119, (Z)-1-(3-(2-ethylphenyl)-4-oxothiazolidin-2-ylidene)-3-(3-(3-(1-(4-(trifluoromethoxy)phenyl)-1H-1,2,4-triazol-3-yl)phenyl)propyl)urea], for which the mortality at 50 µg/cm2 in assay [1] and in assay [2] was 50 to 100% throughout.
`CC(C)c1ccccc1N1C(=O)CS/C1=N\C(=O)NCCCc1cccc(-c2ncn(-c3ccc(OC(F)(F)F)cc3)n2)c1` [P120, (Z)-1-(3-(2-isopropylphenyl)-4-oxothiazolidin-2-ylidene)-3-(3-(3-(1-(4-(trifluoromethoxy)phenyl)-1H-1,2,4-triazol-3-yl)phenyl)propyl)urea]: the mortality at 50 µg/cm2 in assay [1] and in assay [2] was 50 to 100% in each case.
Turning to `Cc1ccc(C(C)C)c(N2C(=O)CS/C2=N\C(=O)NCCCc2cccc(-c3ncn(-c4ccc(OC(F)(F)F)cc4)n3)c2)c1` [P124, (Z)-1-(3-(2-isopropyl-5-methylphenyl)-4-oxothiazolidin-2-ylidene)-3-(3-(3-(1-(4-(trifluoromethoxy)phenyl)-1H-1,2,4-triazol-3-yl)phenyl)propyl)urea], the mortality at 50 µg/cm2 in assay [1] and in assay [2] was 50 to 100% throughout.
With `CCCc1ccc(C)cc1N1C(=O)CS/C1=N\C(=O)NCCCc1cccc(-c2ncn(-c3ccc(OC(F)(F)F)cc3)n2)c1` [P125, (Z)-1-(3-(5-methyl-2-propylphenyl)-4-oxothiazolidin-2-ylidene)-3-(3-(3-(1-(4-(trifluoromethoxy)phenyl)-1H-1,2,4-triazol-3-yl)phenyl)propyl)urea], the mortality at 50 µg/cm2 in assay [1] and in assay [2] was 50 to 100% in each case.
As for `CCc1cccc(C)c1N1C(=O)CS/C1=N\C(=O)NCCCc1cccc(-c2ncn(-c3ccc(OC(F)(F)F)cc3)n2)c1` [P127, (Z)-1-(3-(2-ethyl-6-methylphenyl)-4-oxothiazolidin-2-ylidene)-3-(3-(3-(1-(4-(trifluoromethoxy)phenyl)-1H-1,2,4-triazol-3-yl)phenyl)propyl)urea], the mortality at 50 µg/cm2 in assay [1] and in assay [2] was 50 to 100% in each case.
